Where “and” joins values, the source holds several entries; their conditions need not be identical. Identical values can stand only once.
What was measured:
[1] = test system: human constitutive 20S proteasome; assay: Proteasome activity in purified protein assay (fluorogenic AMC peptide substrates); format: biochemical
Method: The proteolytic activity of the 20S proteasome can be monitored in vitro by measuring the cleavage of fluorogenic peptide substrates for the different catalytic sites as an increase in 7-amino-4-methylcoumarin (AMC) fluorescence over time, as previously reported. Purified human 20S proteasome was pre-treated with a concentration range of TCH-165 or DMSO (vehicle control) for 15 min at 37 °C, on a black flat/clear bottom 96-well plate containing 1 nM of human constitutive 20S proteasome in 50 mM Tris-HCl pH 7.5. Fluorogenic substrates, Suc-LLVY-AMC (CT-L activity, 10 μM), Z-LLE-AMC (Casp-L activity, 10 μM), Boc-LRR-AMC (Tryp-L activity, 20 μM), were then added and the enzymatic activity measured at 37 °C on a SpectraMax M5e spectrometer by measuring an increase in the fluorescence unit per minute for 1 h at 380–460 nm. The release of AMC was monitored as fluorescence over time for 1 h and the resulting 20S activity changes were determined by comparing to the untreated 20S and calculating the fold-increase in activity over vehicle control for each analog at a given concentration.

[2] = Pharmacokinetic assessment in dogs; format: in vivo; details: male, beagle, dog
Method: (§1) Adult beagle dogs (male, 12 months of age, n = 3), weighing approximately 10 kg, received a […] of the test compound at 500 mg bid delivered in capsule form. Blood (approximately 2.5 mL) was collected into lithium heparin tubes at 0, 1 h, 2 h, 4 h, 8 h, and 24 h post-day 1 and post-day 5 dose for PK assessment using mass spectrometry. Blood (approximately 2 mL) was also collected and divided into EDTA and standard clot tubes on day 6 post-dose for determination of CBC and clinical chemistry parameters, respectively, and analyzed at the Michigan State University Veterinary Diagnostic Laboratory. Clinical observations were conducted daily on non-dosing days and twice on dosing days.

[3] = Tolerance in dogs (clinical observations, body weight, CBC, clinical chemistry); format: in vivo, beagle dogs; details: beagles
Method: as §1

[4] = test system: proteasome, CT-L substrate Suc-LLVY-AMC, canine PBMC lysate; assay: Proteasome activity in canine PBMC lysate (target engagement); format: in vivo; details: treated canines, 1920 mg BID
Method: Canine blood samples obtained in BD Vacutainer CPT mononuclear cell preparation tubes containing sodium citrate were used to isolate PBMCs. For PBMC isolation, sample tubes were inverted five times and equilibrated for the centrifuge with sterile PBS buffer. Tubes were centrifuged at 1800× g with the acceleration set at 5 and a break set to 0 at room temperature for 30 min. Half of the plasma layer was discarded. Using a sterile Pasteur pipette, the buffy coat was collected and put into a 15 mL conical tube and sterile PBS buffer was added to 10 mL. The conical tubes were centrifuged at 300× g for 10 min and the supernatant was removed. Cells were resuspended in 150 µL of lysis buffer (50 mM Tris-HCl, 2 mM Na2ATP, 5 mM MgCl2, 0.5 mM EDTA, 10% glycerol) and lysed by vortex. Samples were centrifuged for 20 min at 14,000× g. The total protein concentration of the supernatant was determined using bicinchoninic acid assay (BCA assay), and the samples were normalized to 1 mg/mL. Samples were diluted to 0.036 µg/µL in assay buffer (38 mM Tris, 100 mM NaCl, pH 7.8) and 140 µL of the diluted sample was added to three wells of a black, clear-bottom 96-well plate. Substrate stock solution (10 µL of 375 µM Suc-LLVY-AMC in assay buffer) was added to each well. Fluorescence was measured and kinetic readings were taken every 5 min at 37 °C, at 380/440 nm for 1 h.

[5] = test system: RPMI-8226 subcutaneous xenograft; assay: RPMI-8226 xenograft tumor model
[6] = test system: primary cells from a BTZ refractory MM patient; assay: Primary cell viability, CellTiter-Glo, 72 h; details: Homo sapiens
From the text: White blood cells (WBCs) were separated from red blood cells by the Ficoll density gradient. Multiple myeloma cells were then isolated from WBCs using human CD138 affinity magnetic beads (Miltenyi Biotec; cat#130-093-062; Gaithersburg, MD, USA) following the manufacturer’s protocol. Cells were cryopreserved in 10% DMSO in FBS. Revived cells were maintained in an RPMI medium with 10% FBS for 10 days prior to treatment. […] Cells were equilibrated to RT and CellTiter-Glo (Promega; Madison, WI, USA) solution (100 μL) was added and incubated with shaking for 10 min at RT. The assay plate was then allowed to equilibrate for 5 min at RT and luminescent readings were taken on a SpectraMax® M5. Data are presented as a percentage of the vehicle control for each experimental condition, after background subtraction. Error bars represent SD for triplicate wells.

[7] = blood, dogs, 50 mg/kg bid oral capsule

Question: For `CCOC(=O)[C@]1(c2ccccc2)N=C(c2ccc(OC)cc2)N(Cc2ccccc2)[C@@H]1c1ccc(NCc2ccccc2)cc1` [TCH-165], which “EC200 (concentration at which TCH-165 doubles 20S activity)” value ([1]; CT-L site (b-5), substrate Suc-LLVY-AMC) is on record?
Answer: 1.5 µM

Question: What about the “Fold^M (maximum fold enhancement of 20S activity)” value (from here on “Fold^M”) ([1]; CT-L site, Suc-LLVY-AMC) of the same molecule?
Answer: 810%

Question: What about the “Fold^M” value ([1]; Casp-L site, Z-LLE-AMC) of the same molecule?
Answer: 1290%

Question: And the “Fold^M” value ([1]; Tryp-L site, Boc-LRR-AMC)?
Answer: 500%

Question: What about the Cmax [2, 7] of the same molecule?
Answer: 1600 nM

Question: What about the Tmax [2, 7] of the same molecule?
Answer: 24 h

Question: And the Cmax ([2]; plasma, dogs (n=3), means, 50 mg/kg bid oral)?
Answer: 1570 nM

Question: And the AUC ([2]; plasma, dogs (n=3), means, 50 mg/kg bid oral, read-out: AUC (nM) (0-24 for dogs))?
Answer: 19.8 µM·h

Question: What about the body weight change ([3]; 50 mg/kg bid oral capsule, five consecutive days) of the same molecule?
Answer: < 1%

Question: And the “clinical observations, body weight, complete blood counts and clinical chemistry panel compared to pre-dose status” value ([3]; 50 mg/kg bid oral capsule, five days)?
Answer: no significant changes

Question: What about the “notable change in the clinical chemistry profile” value ([3]; day 5 of administration) of the same molecule?
Answer: increase in plasma iron concentrations

Question: What about the “drug concentration by mass spectrometry” value [4] of the same molecule?
Answer: 1400 nM and 1100 nM

Question: What about the “reduction of tumor growth compared to vehicle control” value ([5]; 100 mg/kg bid oral gavage, after 42 days, p < 0.05) of the same molecule?
Answer: 75.71% and 76%

Question: And the “loss of body weight” value ([5]; SCID mice, 100 mg/kg bid oral)?
Answer: < 10%

Question: And the average tumor volume ([5]; after 42 days, TCH-165 100 mg/kg bid oral, bortezomib 0.375 reduced to 0.09 mg/kg i.v. 3X per week)?
Answer: 304.43 (±49.50) mm^3

Question: And the CC50 [6]?
Answer: 8.1 µM

From article PMC9138505, “Small Molecule 20S Proteasome Enhancer Regulates MYC Protein Stability and Exhibits Antitumor Activity in Multiple Myeloma” (Biomedicines, 2022)
